{
  "source": "paper PMC5971063",
  "about": "(ACS infectious diseases, 2017)",
  "key": {"S. flexneri 2457 NR-517 [1]": {"system": "S. flexneri 2457 NR-517", "experiment": "Single-point antibacterial screen", "format": "cell-based, Shigella flexneri"}, "Hemolysis assay": {"experiment": "Hemolysis assay", "format": "cell-based, rabbit", "conditions": "rabbit, rabbit erythrocytes (2% w/w)"}, "[2]": {"system": "E. coli S30 Extract System (prokaryotic translation)", "experiment": "Cell-free in vitro translation assay, prokaryotic system", "format": "biochemical", "conditions": "1.25 µM–2.4 nM"}, "E. coli ATCC 25922 [3]": {"system": "E. coli ATCC 25922", "experiment": "Single-point antibacterial screen"}, "E. faecalis ATCC 29212": {"system": "E. faecalis ATCC 29212", "experiment": "Single-point antibacterial screen"}, "K. pneumoniae NR-151410": {"system": "K. pneumoniae NR-151410", "experiment": "Single-point antibacterial screen"}, "P. mirabilis HM-752 [4]": {"system": "P. mirabilis HM-752", "experiment": "Single-point antibacterial screen"}, "MRSA ATCC 33591 [5]": {"system": "MRSA ATCC 33591", "experiment": "Single-point antibacterial screen"}, "MRSA A960649 NR-45914 [6]": {"system": "MRSA A960649 NR-45914", "experiment": "Single-point antibacterial screen"}, "A. baumannii ATCC 19606": {"system": "A. baumannii ATCC 19606", "experiment": "Single-point antibacterial screen"}, "C. freundii 4747 CFAA [7]": {"system": "C. freundii 4747 CFAA", "experiment": "Single-point antibacterial screen"}, "E. cloacae ATCC 13047 [8]": {"system": "E. cloacae ATCC 13047", "experiment": "Single-point antibacterial screen"}, "[9]": {"system": "L. monocytogenes ATCC 19115", "experiment": "Single-point antibacterial screen"}, "P. aeruginosa ATCC 27853": {"system": "P. aeruginosa ATCC 27853", "experiment": "Single-point antibacterial screen"}, "[10]": {"system": "S. epidermidis ATCC 12384", "experiment": "Single-point antibacterial screen"}, "S. marcescens ATCC 13880 [11]": {"system": "S. marcescens ATCC 13880", "experiment": "Single-point antibacterial screen"}, "S. flexneri 2457 NR-517 [12]": {"system": "S. flexneri 2457 NR-517", "experiment": "MIC by double-dilution method", "format": "cell-based, Shigella flexneri"}, "rabbit erythrocytes": {"system": "rabbit erythrocytes", "experiment": "Hemolysis assay", "format": "cell-based", "conditions": "100 µM"}, "[13]": {"system": "rabbit reticulocyte lysate (eukaryotic translation)", "experiment": "Cell-free in vitro translation assay, eukaryotic system", "format": "biochemical", "conditions": "4.2 µM to 5 nM"}, "E. coli ATCC 25922 [14]": {"system": "E. coli ATCC 25922", "experiment": "MIC by double-dilution method"}, "P. mirabilis HM-752 [15]": {"system": "P. mirabilis HM-752", "experiment": "MIC by double-dilution method"}, "MRSA ATCC 33591 [16]": {"system": "MRSA ATCC 33591", "experiment": "MIC by double-dilution method", "conditions": "MRSA 33591"}, "MRSA A960649 NR-45914 [17]": {"system": "MRSA A960649 NR-45914", "experiment": "MIC by double-dilution method"}, "C. freundii 4747 CFAA [18]": {"system": "C. freundii 4747 CFAA", "experiment": "MIC by double-dilution method"}, "E. cloacae ATCC 13047 [19]": {"system": "E. cloacae ATCC 13047", "experiment": "MIC by double-dilution method"}, "[20]": {"system": "L. monocytogenes ATCC 19115", "experiment": "MIC by double-dilution method"}, "[21]": {"system": "S. epidermidis ATCC 12384", "experiment": "MIC by double-dilution method"}, "S. marcescens ATCC 13880 [22]": {"system": "S. marcescens ATCC 13880", "experiment": "MIC by double-dilution method"}, "[23]": {"system": "E. coli A-site (RNA, rRNA) GGCGUCACACCUUCGGGUGAAGUCGCC", "experiment": "fluorescent displacement assay", "conditions": "50 mM Na+; F–NEO displaced (0.1 µM 1:1 complex), 10 mM HEPES, 0.4 mM EDTA, pH 7"}, "[24]": {"system": "human cytosolic A-site (RNA, rRNA) GGCGUCGCUCCUUCGGGAAAAGUCGCC", "experiment": "fluorescent displacement assay", "conditions": "50 mM Na+; F–NEO displaced (0.1 µM 1:1 complex), 10 mM HEPES, 0.4 mM EDTA, pH 7"}, "[25]": {"system": "mitochondrial A-site (RNA, rRNA) GGCGUCACCCCUUCGGGACAAGUCGCC", "experiment": "fluorescent displacement assay", "conditions": "50 mM Na+; F–NEO displaced (0.1 µM 1:1 complex), 10 mM HEPES, 0.4 mM EDTA, pH 7"}, "E. coli A-site": {"system": "E. coli A-site", "conditions": "concentration at which F–NEO emission is 50% of maximum"}, "human cytosolic A-site": {"target": "human cytosolic A-site", "conditions": "F–NEO displacement"}, "mitochondrial A-site": {"target": "mitochondrial A-site", "conditions": "F–NEO displacement"}},
  "data": [
    {"molecule": "NCc1ccc2c(c1)C(=O)c1ccccc1C2=O", "note": "[AMA]", "values": [
      {"measurement": "inhibition at 6.3 µM", "setting": "S. flexneri 2457 NR-517 [1]; Shigella flexneri, 2457NR517, read-out: Inhibition of bacterial growth", "result": 9, "unit": "%"},
      {"measurement": "hemolysis at 1 h, 100 µM", "setting": "Hemolysis assay", "result": "10 ± 4.6", "unit": "%"},
      {"measurement": "Inhibition of prokaryotic translation (in words)", "setting": "[2]", "result": "did not inhibit in vitro translation"},
      {"measurement": "inhibition at 6.3 µM", "setting": "E. coli ATCC 25922 [3]; Escherichia coli, ATCC25922, read-out: Inhibition of bacterial growth", "result": 2, "unit": "%"},
      {"measurement": "inhibition at 6.3 µM", "setting": "E. faecalis ATCC 29212; Enterococcus faecalis, ATCC29212, read-out: Inhibition of bacterial growth", "result": 27, "unit": "%"},
      {"measurement": "inhibition at 6.3 µM", "setting": "K. pneumoniae NR-151410; Klebsiella pneumoniae, NR151410, read-out: Inhibition of bacterial growth", "result": 0, "unit": "%"},
      {"measurement": "inhibition at 6.3 µM", "setting": "P. mirabilis HM-752 [4]; Proteus mirabilis, HM752, read-out: Inhibition of bacterial growth", "result": 19, "unit": "%"},
      {"measurement": "inhibition at 6.3 µM", "setting": "MRSA ATCC 33591 [5]; Staphylococcus aureus, ATCC33591|MRSA, read-out: Inhibition of bacterial growth", "result": 0, "unit": "%"},
      {"measurement": "inhibition at 6.3 µM", "setting": "MRSA A960649 NR-45914 [6]; Staphylococcus aureus, MRSA, read-out: Inhibition of bacterial growth", "result": 0, "unit": "%"},
      {"measurement": "inhibition at 6.3 µM", "setting": "A. baumannii ATCC 19606; Acinetobacter baumannii, ATCC19606, read-out: Inhibition of bacterial growth", "result": 0, "unit": "%"},
      {"measurement": "inhibition at 6.3 µM", "setting": "C. freundii 4747 CFAA [7]; Citrobacter freundii, 4747CFAA, read-out: Inhibition of bacterial growth", "result": 4, "unit": "%"},
      {"measurement": "inhibition at 6.3 µM", "setting": "E. cloacae ATCC 13047 [8]; Enterobacter cloacae, ATCC13047, read-out: Inhibition of bacterial growth", "result": 0, "unit": "%"},
      {"measurement": "inhibition at 6.3 µM", "setting": "[9]; Listeria monocytogenes, ATCC19115, 48 h, read-out: Inhibition of bacterial growth", "result": 37, "unit": "%"},
      {"measurement": "inhibition at 6.3 µM", "setting": "P. aeruginosa ATCC 27853; Pseudomonas aeruginosa, ATCC27853, read-out: Inhibition of bacterial growth", "result": 5, "unit": "%"},
      {"measurement": "inhibition at 6.3 µM", "setting": "[10]; Staphylococcus epidermidis, ATCC12384, read-out: Inhibition of bacterial growth", "result": 0, "unit": "%"},
      {"measurement": "inhibition at 6.3 µM", "setting": "S. marcescens ATCC 13880 [11]; Serratia marcescens, ATCC13880, read-out: Inhibition of bacterial growth", "result": 0, "unit": "%"}
    ]},
    {"molecule": "NC[C@@H]1O[C@H](O[C@H]2[C@@H](O)[C@H](O[C@@H]3[C@@H](O)[C@H](N)C[C@H](N)[C@H]3O[C@H]3O[C@H](CN)[C@@H](O)[C@H](O)[C@H]3N)O[C@@H]2CO)[C@H](N)[C@@H](O)[C@@H]1O", "note": "[NEO, neomycin]", "values": [
      {"measurement": "Inhibition of bacterial growth", "setting": "S. flexneri 2457 NR-517 [1]; S. flexneri, 6.3 µM", "result": 100, "unit": "%"},
      {"measurement": "MIC", "setting": "S. flexneri 2457 NR-517 [12]", "result": 6.3, "unit": "µM"},
      {"measurement": "% hemolysis", "setting": "rabbit erythrocytes", "result": "7.0 ± 0.4", "unit": "%"},
      {"measurement": "Inhibition of eukaryotic translation", "setting": "[13]", "result": "inhibition of translation is not observed"},
      {"measurement": "MIC", "setting": "E. coli ATCC 25922 [14]", "result": 1.56, "unit": "µM"},
      {"measurement": "MIC", "setting": "P. mirabilis HM-752 [15]", "result": 6.3, "unit": "µM"},
      {"measurement": "MIC", "setting": "MRSA ATCC 33591 [16]", "result": 400, "unit": "µM"},
      {"measurement": "MIC", "setting": "MRSA A960649 NR-45914 [17]", "result": 400, "unit": "µM"},
      {"measurement": "MIC", "setting": "C. freundii 4747 CFAA [18]", "result": 0.78, "unit": "µM"},
      {"measurement": "MIC", "setting": "E. cloacae ATCC 13047 [19]", "result": 3.25, "unit": "µM"},
      {"measurement": "MIC", "setting": "[20]", "result": 1.6, "unit": "µM"},
      {"measurement": "MIC", "setting": "[21]", "result": 1.6, "unit": "µM"},
      {"measurement": "MIC", "setting": "S. marcescens ATCC 13880 [22]", "result": 3.2, "unit": "µM"},
      {"measurement": "Inhibition of bacterial growth", "setting": "E. coli ATCC 25922 [3]; E. coli, 6.3 µM", "result": 100, "unit": "%"},
      {"measurement": "Inhibition of bacterial growth", "setting": "E. faecalis ATCC 29212; E. faecalis, 6.3 µM", "result": 39, "unit": "%"},
      {"measurement": "Inhibition of bacterial growth", "setting": "K. pneumoniae NR-151410; K. pneumoniae, 6.3 µM", "result": 0, "unit": "%"},
      {"measurement": "Inhibition of bacterial growth", "setting": "P. mirabilis HM-752 [4]; P. mirabilis, 6.3 µM", "result": 96, "unit": "%"},
      {"measurement": "Inhibition of bacterial growth", "setting": "MRSA ATCC 33591 [5]; MRSA 33591, 6.3 µM", "result": 0, "unit": "%"},
      {"measurement": "Inhibition of bacterial growth", "setting": "MRSA A960649 NR-45914 [6]; MRSA A960649, 6.3 µM", "result": 0, "unit": "%"},
      {"measurement": "Inhibition of bacterial growth", "setting": "A. baumannii ATCC 19606; A. baumannii, 6.3 µM", "result": 91, "unit": "%"},
      {"measurement": "Inhibition of bacterial growth", "setting": "C. freundii 4747 CFAA [7]; C. freundii, 6.3 µM", "result": 97, "unit": "%"},
      {"measurement": "Inhibition of bacterial growth", "setting": "E. cloacae ATCC 13047 [8]; E. cloacae, 6.3 µM", "result": 100, "unit": "%"},
      {"measurement": "Inhibition of bacterial growth", "setting": "[9]; L. monocytogenes, 6.3 µM, 48 h incubation", "result": 100, "unit": "%"},
      {"measurement": "Inhibition of bacterial growth", "setting": "P. aeruginosa ATCC 27853; P. aeruginosa, 6.3 µM", "result": 11, "unit": "%"},
      {"measurement": "Inhibition of bacterial growth", "setting": "[10]; S. epidermidis, 6.3 µM", "result": 95, "unit": "%"},
      {"measurement": "Inhibition of bacterial growth", "setting": "S. marcescens ATCC 13880 [11]; S. marcescens, 6.3 µM", "result": 100, "unit": "%"},
      {"measurement": "IC50", "setting": "[23]", "result": "87.3 ± 5.9", "unit": "nM"},
      {"measurement": "IC50", "setting": "[24]", "result": "76.5 ± 13.2", "unit": "nM"},
      {"measurement": "IC50", "setting": "[25]", "result": "87.1 ± 8.3", "unit": "nM"},
      {"measurement": "IC50", "setting": "E. coli A-site", "result": "87.3 ± 5.9", "unit": "nM"},
      {"measurement": "IC50", "setting": "human cytosolic A-site", "result": "76.5 ± 13.2", "unit": "nM"},
      {"measurement": "IC50", "setting": "mitochondrial A-site", "result": "87.1 ± 8.3", "unit": "nM"}
    ]},
    {"molecule": "Triton X-100", "values": [
      {"measurement": "% hemolysis", "setting": "rabbit erythrocytes", "result": 100.0, "unit": "%"}
    ]}
  ]
}
